Data taken from the NIST ThermoML archive (doi:10.1016/j.jct.2019.01.022).
Numbers after ± are expanded uncertainties.

Assays:
[1] = for mass density: 293 K, 101.33 kPa, Pycnometric method; for vapor or sublimation pressure: Transpiration method; for Normal melting temperature: DTA
[2] = Molar enthalpy of transition or fusion; conditions: DSC

CC(C)NC(=O)Nc1ccccc1 [1-isopropyl-3-phenylurea]
Crystal
Conditions | Molar enthalpy of transition or fusion [kJ/mol] | Normal melting temperature [°C] | mass density [kg/m3]
[1] | – | 156.2 ± 2 | 1050 ± 20
[2] | 22.4 ± 2.3 | – | –

[1], Crystal
Conditions | vapor or sublimation pressure [kPa]
393.3 K | 0.00201 ± 0.00015
396.2 K | 0.00261 ± 0.00017
400.3 K | 0.00373 ± 0.00025
403.2 K | 0.00478 ± 0.00031
406.5 K | 0.00631 ± 0.00044
409.6 K | 0.00835 ± 0.00056
411.7 K | 0.00986 ± 0.00066
413.7 K | 0.01159 ± 0.00077
416.5 K | 0.01436 ± 0.00094
419.6 K | 0.01814 ± 0.0012
421.5 K | 0.02123 ± 0.0014
423.8 K | 0.02493 ± 0.0016

CC(C)(C)NC(=O)Nc1ccccc1 [1-tert-butyl-3-phenylurea]
Conditions | Molar enthalpy of transition or fusion, Crystal 1 [kJ/mol] | Molar enthalpy of transition or fusion, Crystal 2 [kJ/mol] | Normal melting temperature, Crystal 1 [°C] | Triple point temperature, Crystal 2, DSC [K] | mass density, Crystal 2 [kg/m3]
[1] | – | – | 168 ± 2 | 432 ± 2.1 | 1062 ± 20
[2] | 24.7 ± 2.5 | 7.8 ± 0.8 | – | – | –

[1], Crystal 2
Conditions | vapor or sublimation pressure [kPa]
385.9 K | 0.00162 ± 0.00012
390 K | 0.00233 ± 0.00015
392.4 K | 0.00294 ± 0.0002
396.3 K | 0.00405 ± 0.00027
400.2 K | 0.00579 ± 0.00041
403.3 K | 0.00737 ± 0.00051
406.2 K | 0.00973 ± 0.00067
410.5 K | 0.01397 ± 0.00092
416.2 K | 0.02115 ± 0.0014
420.6 K | 0.03129 ± 0.002
424 K | 0.03902 ± 0.0025
426.6 K | 0.0483 ± 0.0031
428.8 K | 0.05831 ± 0.0037
430.5 K | 0.066 ± 0.0042

NC(=O)Nc1ccccc1 [N-phenylurea]
[1], Crystal
Conditions | vapor or sublimation pressure [kPa]
386 K | 0.00061 ± 5e-05
391.7 K | 0.00103 ± 7e-05
396.2 K | 0.00154 ± 0.0001
399.5 K | 0.00209 ± 0.00015
402.4 K | 0.00275 ± 0.00018
406.2 K | 0.00394 ± 0.00025
408.3 K | 0.0047 ± 0.0003
411.5 K | 0.00607 ± 0.00043
413.6 K | 0.00714 ± 0.00048
